Measured values: patent publication US20220267864A1, “THERAPEUTIC, DIAGNOSTIC, AND PROGNOSTIC METHODS FOR CANCER” (Genentech, Inc., priority 2014, published 2022)

Tested on: UMUC-10 cell line
Assay: Cell viability (CELLTITER-GLO) of bladder cancer cell line treated with erlotinib
Type: cell-based
Conditions: UMUC-10 bladder cancer cell line; 72 hours; 3-fold dilution series starting with a 5 uM dose; FIG. 11G
From the text: Bladder cancer cell lines were obtained from the American Type Culture Collection (ATCC, Manassas, Va.) or from the Deutsche Sammlung von Mikroorganismen and Zellkulturen GmbH (DSMZ, Braunschweig, Germany). Cell lines were archived at an early passage in the Genentech cell bank and authenticated either by a multiplex short tandem repeat assay or as previously described (O'Brien et al. Clin. Cancer Res. 16(14): 3670-3683, 2010). All cell lines were maintained in RPMI 1640 or DMEM supplemented with 10% fetal bovine serum (Sigma, St. Louis, Mo.), nonessential amino acids, and 2 mmol/L L-glutamine.
Details of its structure, selectivity, and biological properties have been previously described (Stamos et al. J. Biol. Chem. 277(48): 46265-46272, 2002). Cell viability studies were carried out as previously described (O'Brien et al. Clin. Cancer Res. 16(14): 3670-3683, 2010). Cells were plated in quadruplicate at a density of 2,500 cells per well in 384-well plates in normal growth medium and allowed to adhere overnight. […] Cell viability was measured 72 hours later using the […]-GLO® Luminescent Cell Viability Assay (Promega, Madison, Wis.). The percent viability at each concentration was calculated compared to the control treated only with DMSO.

`C#Cc1cccc(Nc2ncnc3cc(OCCOC)c(OCCOC)cc23)c1` [erlotinib, [6,7-bis(2-methoxyethoxy)-4-quinazolin-4-yl]-(3-ethynylphenyl) amine] was tested. Which “growth inhibition (GI)” value did it give?
The value was greater than 25%.
